Results on 1 substance are retold here after patent publication US20210154280A1, “NEO-EPITOPE VACCINES AND METHODS OF TREATING CANCER” (Epivax Oncology, Inc., priority 2019, published 2021).

In one experiment the test system is CT26 tumor cells. The experiment is described as follows: CT26 tumor growth and survival after vaccination (Example 1). The settings on record: N=10 per group.
In experiment [1] the test system is CT26 murine colon tumor cells. Kind of experiment: Anti-tumor activity with or without poly-ICLC, CT26 murine tumor model (Example 13). In kind it is in vivo, BALB/c mice. The settings on record: day 25 post-tumor implantation; relative to PBS or poly-ICLC alone; sc twice per week for three weeks. The method, then: The goal of this experiment was to determine the requirement for the inclusion of the adjuvant poly-ICLC in a peptide vaccine containing ANCER™ selected neoantigens. For this experiment, female BALB/c mice were implanted subcutaneously with 3×10^5 CT26 murine colon tumor cells. Tumor growth was monitored by caliper measurement and mice were sacrificed 45 days after tumor implantation or when tumor volumes reached 2000 mm^3, whichever came first.
Four vaccine groups were tested (n=10 mice/group): • Group 1=PBS only • Group 2=PBS with 50 μg poly-ICLC • Group 3=20 ANCER™ selected (uncapped) peptides with 50 μg poly-ICLC • Group 4=20 ANCER™ selected (uncapped) peptides only
Peptide vaccines were comprised of 20 different ANCER™ selected peptides at a concentration of 5 μg/peptide for a total dose of 100 μg peptide per immunization. Mice were immunized subcutaneously in the opposite flank from tumor implantation twice per week for three weeks, starting at day 4 post-tumor implantation.

Description for CT26 tumor cells: Mice were separated into three groups: 1) PBS control; 2) poly-ICLC (vehicle); 3) ANCER™-selected CT26 Neoantigen Peptides+poly-ICLC. • Group 1: PBS, sc injections at days 5, 8, 12, 15, 19, 22, and 26. • Group 2: poly-ICLC, 50 μg, sc injections at days 5, 8, 12, 15, 19, 22, and 26. • Group 3: 5 μg/ANCER™-selected CT26 Neoantigen Peptide (100 μg total ANCER™-selected CT26 Neoantigen Peptides)+50 μg poly-ICLC, sc injections at days 5, 8, 12, 15, 19, 22, and 26.
All mice (N=10 mice per group) were injected 3*10^5 CT26 tumor cells in 0% Matrigel at day 0. Mice were sacrificed once the tumor volume reached 2,000 mm^3 or at day 45, whichever came first.

poly-ICLC: in the experiment on CT26 tumor cells, the “mice that survived the 45 days of the experiment (in words)” value was “None”. Moreover, the “mice reaching a tumor volume of at least 2,000 mm^3 (endpoint)” value in the experiment on CT26 tumor cells (by day 28) was found to be 60%. Besides, the “control of tumor growth” value in experiment [1] is reported as “no difference in tumor growth kinetics”.
